Measured values from patent US20190381128A1, “GLP-1 Secretagogue and Composition” (MORINAGA MILK INDUSTRY CO., LTD., priority 2017, published 2019).

How the values were obtained:
GLUTag cells [1] = experiment: GLP-1 secretion cell assay using GLUTag cells (ELISA of culture supernatant); assay type: cell-based, mouse
Experimental: Each sample was dissolved in Milli Q water and a solution having a protein concentration of 7.5 mg/mL was prepared by the Bradford method. The solution was adjusted to pH 2.0, which is the same pH as in the human stomach, with a 1 mol/L hydrochloric acid, then pepsin (Pep, Sigma-Aldrich; in 1 mM HCL) was added in an amount of 1/12.5 (w/w) relative to the proteins, and the mixture was shaken in a 37° C. thermostat at 140 rpm for 30 minutes. Then, the pH was adjusted to 7.0 with a 1 mol/L sodium hydrogen carbonate solution to stop the digestion reaction of pepsin. Subsequently, pancreatin (Pan, Sigma-Aldrich; in 0.1 M NaHCO3) was added in an amount of 1/62.5 (w/w) relative to the proteins, and the mixture was shaken in a 37° C. thermostat at 140 rpm for a desired time (5 minutes, 10 minutes, 15 minutes, 30 minutes, 45 minutes, 60 minutes, 120 minutes, or overnight). After that, with heat at 90° C. for 3 minutes, the digestion reaction by pancreatin was stopped. The solution after digestion was lyophilized and stored at 4° C. The digestion reactions simulated the state of digestion that a micellar casein and various casein materials taken in the body undergo in the gastrointestinal tract.
GLUTag cells (see, for example, Food Funct., 2015, vol. 6, p. 2525-2534) were cultured on a culture medium containing 10% fetal bovine serum (Dulbecco's modified Eagle's medium (DMEM), GIBCO) at 37° C. in a 5% CO2 incubator for 2 to 3 days into a subconfluent layer. Then, the culture medium was removed, and the cells were suspended twice with HEPES buffer (20 mM HEPES(Sigma), 140 mM NaCl (Wako), 4.5 mM KCl (Wako), 10 mM Glucose (Wako), 1.2 mM MgCl2 (Wako), 1.2 mM CaCl2 (Wako), 0.1% BSA (Sigma), pH7.4).
The lyophilized sample of (1) was dissolved with HEPES buffer so as to give a concentration of 5 mg/mL, and 80 μL of the resulting solution was added to each well of a 48-well culture plate containing the GLUTag cells cultured therein and the cells were incubated at 37° C. for […]. After the treatment, the culture supernatant was collected and was subjected to centrifugation at 800 g at 4° C. for 5 minutes and the resulting supernatant was stored at −80° C. as an ELISA measurement sample. The amount of GLP-1 in the supernatant was measured using ELISA (Millipore) according to a protocol recommended by the manufacturer. The amount of GLP-1 was represented as a relative amount to 100% of that of a group treated only with HEPES buffer (blank group). The number of samples was always three (n=3).
The lyophilized sample of (1) was subjected to an assay using GLUTag cells by the same method and conditions as in Example 1 and the amount of GLP-1 secreted was represented as a relative amount to 100% of that of a blank group. The number of samples was always three (n=3).
The lyophilized sample of (1) was subjected to an assay using GLUTag cells by the same method and conditions as in Example 1, and the amount of GLP-1 secreted was measured as a relative amount to 100% of that of a blank group, provided that the digested product of the κ-casein material sample was diluted at a concentration of 5 mg/mL or 0.5 mg/mL in dissolution in HEPES buffer. A glycomacropeptide (CGMP: from Arla) was also provided as a sample and the standard sample was dissolved as it was in HEPES buffer at a concentration of […]. In the assay, GLUTag cells obtained through depolarizing stimulation with 70 mM KCl were used as a positive control. The amount of GLP-1 secreted was represented as a relative amount to 100% of that of a blank group. The number of samples was always three or four (n=3 to 4).
The lyophilized sample of (1) was subjected to an assay using GLUTag cells by the same method and conditions as in Example 1, and the amount of GLP-1 secreted was represented as a relative amount to 100% of that of a blank group. The number of samples was always three (n=3). […]

GLUTag cells [2] = experiment: as above; assay type: cell-based, mouse; details: for GLP-1 secretion stimulating activity on GLUTag cells, ratio to blank group: Table 8; for GLP-1 secretion stimulating activity in comparison with the blank group: Dunnett t-test
[3] = synthesized peptide 1 mM in HEPES buffer
[4] = synthesized peptide 5 mM in HEPES buffer

Substance	GLP-1 secretion stimulating activity on GLUTag cells, ratio to blank group (GLUTag cells [2]; [3])	GLP-1 secretion stimulating activity on GLUTag cells, ratio to blank group (GLUTag cells [2]; [4])	also measured
κ-Casein: κ-casein from bovine milk (from Sigma-Aldrich)	–	–	GLP-1 secretion stimulating activity on GLUTag cells, ratio to blank group (GLUTag cells [1]; Table 3, non-degraded, 0.5 mg/ml): 115.6 (c) %; GLP-1 secretion stimulating activity on GLUTag cells, ratio to blank group (GLUTag cells [1]; Table 3, non-degraded, 5 mg/ml): 176.5 (b) %; GLP-1 secretion stimulating activity on GLUTag cells, ratio to blank group (GLUTag cells [1]; Table 3, pep + pan30, 0.5 mg/ml): 140.9 (c) %; GLP-1 secretion stimulating activity on GLUTag cells, ratio to blank group (GLUTag cells [1]; Table 3, pep + pan30, 5 mg/ml): 225.2 (b) %; GLP-1 secretion stimulating activity on GLUTag cells, ratio to blank group (GLUTag cells [1]; Table 3, pep + pan60, 0.5 mg/ml): 149.2 (b) %; GLP-1 secretion stimulating activity on GLUTag cells, ratio to blank group (GLUTag cells [1]; Table 3, pep + pan60, 5 mg/ml): 216.2 (b) %; GLP-1 secretion stimulating activity on GLUTag cells, ratio to blank group (GLUTag cells [1]; Table 3, pep only, 0.5 mg/ml): 150.5 (c) %; GLP-1 secretion stimulating activity on GLUTag cells, ratio to blank group (GLUTag cells [1]; Table 3, pep only, 5 mg/ml): 261.8 (b) %
LEDSPEVIESPPEINT (peptide 5) [SEQ ID NO: 5, peptide fragment detected in micellar casein digested product, synthesized]	133.9%	136.9%	–
SRYPSYGLN (peptide 6) [SEQ ID NO: 6, peptide fragment found in both micellar casein hydrolysate and casein hydrolysate, synthesized]	123.6%	149.7%	–
GPVRGPFPIIV (peptide 1) [SEQ ID NO: 1, peptide fragment detected in micellar casein digested product, synthesized]	126.0%	254.8 (*) %	GLP-1 secretion stimulating activity in comparison with the blank group (GLUTag cells [2]; peptide 5 mM): significantly higher
YQKFPQYL (peptide 7) [SEQ ID NO: 7, peptide fragment found in both micellar casein hydrolysate and casein hydrolysate, synthesized]	160.8%	87.1%	–
HQGLPQEVLNE (peptide 4) [SEQ ID NO: 4, peptide fragment detected in micellar casein digested product, synthesized]	158.9%	115.6%	–
HIQKEDVPSE (peptide 2) [SEQ ID NO: 2, peptide fragment detected in micellar casein digested product, synthesized]	141.8%	200.5 (*) %	GLP-1 secretion stimulating activity in comparison with the blank group (GLUTag cells [2]; peptide 5 mM): significantly higher
Glycomacropeptide	–	–	GLP-1 secretion stimulating activity on GLUTag cells, ratio to blank group (GLUTag cells [1]; Table 4, non-degraded (glycomacropeptide dissolved as it was in HEPES buffer)): 81.8%
YPVEPFTESQ (peptide 3) [SEQ ID NO: 3, peptide fragment detected in micellar casein digested product, synthesized]	168.7 (*) %	143.5%	GLP-1 secretion stimulating activity in comparison with the blank group (GLUTag cells [2]; peptide 1 mM): significantly higher
